From ChEMBL document CHEMBL3120142 (J Med Chem, 2014)
Values after ≈ are worked out from the molar mass of the structure shown. Active and inactive are the calls of the source. The rule behind the calls is not given here.

Tests used:
Influenza A virus [1] = assay: microbe, parasite or virus in culture; conditions: A/Jena/5258/2009(H1N1), MDCK, 48 h
[2] = Tmax in Sprague-Dawley rat at 50 mg/kg, po by LC-MS/MS analysis; type: ADME, organism-based; design: dose 50 mg/kg, route oral; conditions: in vivo
[3] = Mean residence time in Sprague-Dawley rat at 50 mg/kg, po by LC-MS/MS analysis; type: ADME, organism-based; design: dose 50 mg/kg, route oral; conditions: in vivo
in vivo [4] = conditions: Sprague-Dawley, rat, po, 50 mg/kg
MDCK = assay: Cytotoxicity against MDCK cells assessed as cell viability after 72 hrs; type: cell-based, Canis lupus familiaris; conditions: dog
in vivo [5] = conditions: Sprague-Dawley, rat, po, 50 mg/kg; remark: listed apart in the source
Description: Half life in Sprague-Dawley rat at 50 mg/kg, po by LC-MS/MS analysis

in vivo [6] = conditions: Sprague-Dawley, rat, iv, 10 mg/kg
Description: Half life in Sprague-Dawley rat at 10 mg/kg, iv by LC-MS/MS analysis

[7] = Oral bioavailability in fasted mouse at 10 mg/kg by LC-MS/MS analysis; type: ADME, organism-based; conditions: in vivo
[8] = Mean residence time in Sprague-Dawley rat at 10 mg/kg, iv by LC-MS/MS analysis; type: ADME, organism-based; design: dose 10 mg/kg, route intravenous; conditions: in vivo
[9] = Chemical stability of the compound in phosphate buffer saline at pH 2.0 to 9.0; type: physicochemical
Influenza A virus [10] = assay: Antiviral activity against Influenza A virus H3N2; type: functional, organism-based
[11] = AUC in Sprague-Dawley rat at 10 mg/kg, iv by LC-MS/MS analysis; type: ADME, organism-based; design: dose 10 mg/kg, route intravenous; conditions: plasma
[12] = Plasma protein binding in human at 10 to 50 uM after 10 mins by HPLC analysis; type: ADME, cell-free; conditions: read-out: PPB (converted)
albumin = albumin (Homo sapiens, UniProt P02768); assay: Binding affinity to albumin (unknown origin) at 10 to 50 uM after 10 mins by HPLC analysis; type: ADME; conditions: read-out: PPB (converted)
[13] = Cmax in Sprague-Dawley rat at 50 mg/kg, po by LC-MS/MS analysis; type: ADME, organism-based; design: dose 50 mg/kg, route oral; conditions: in vivo
[14] = AUC in Sprague-Dawley rat at 50 mg/kg, iv by LC-MS/MS analysis; type: ADME, organism-based; design: dose 50 mg/kg, route intravenous; conditions: plasma
[15] = Oral bioavailability in fed mouse at 10 mg/kg by LC-MS/MS analysis; type: ADME, organism-based; conditions: in vivo
Influenza A virus [16] = assay: Antiviral activity against Influenza A virus H1N1; type: functional, organism-based
Rattus norvegicus = assay: Bioavailability in Sprague-Dawley rat at 10 mg/kg, iv by LC-MS/MS analysis; type: ADME, organism-based; conditions: in vivo
in vivo [17] = conditions: Sprague-Dawley, rat, po, 10 mg/kg
[18] = Half life in Sprague-Dawley rat plasma; type: ADME, cell-free
Neuraminidase [19] = target: T1, Neuraminidase (Influenza A virus, UniProt B4URF0); design: species or system A/Berlin/10/04(H3N2)
Neuraminidase [20] = target: T1, Neuraminidase; design: species or system A/Jena/5555/09(H1N1)
Neuraminidase [21] = target: T1, Neuraminidase; design: species or system A/Jena/5258/2009(H1N1)
[22] = Solubility of the compound in phosphate buffer saline at pH 7.4 after 20 mins by HPLC analysis; type: physicochemical
Neuraminidase [23] = target: T1, Neuraminidase; design: species or system A/HH/1580/09(H1N1)
Neuraminidase [24] = target: T1, Neuraminidase; design: species or system A/Sachsen/6/02(H3N2)
Neuraminidase [25] = target: T1, Neuraminidase; design: species or system A/Hong Kong/68(H3N2)
[26] = Solubility of the compound in phosphate buffer saline at pH 9.0 after 20 mins by HPLC analysis; type: physicochemical
Neuraminidase [27] = target: T1, Neuraminidase; design: species or system A/Rheinland-Pfalz/3911/03(H3N2)
[28] = Solubility of the compound in phosphate buffer saline at pH 2.0 after 20 mins by HPLC analysis; type: physicochemical
[29] = Prodrug activation in human liver mitochondria assessed as formation of oseltamivir carboxylate per mg protein at 500 uM after 30 mins by HPLC analysis; conditions: 0.5 h
[30] = Prodrug activation in 9000g pig liver supernatant assessed as formation of oseltamivir carboxylate per mg protein at 500 uM after 30 mins by HPLC analysis; type: tissue-based, Sus scrofa; conditions: 0.5 h
[31] = Prodrug activation in human liver cytosol assessed as formation of oseltamivir carboxylate per mg protein at 500 uM after 30 mins by HPLC analysis; type: tissue-based; conditions: 0.5 h
[32] = Prodrug activation in pig liver microsomes assessed as formation of oseltamivir carboxylate per mg protein at 500 uM after 30 mins by HPLC analysis; design: species or system Sus scrofa, Microsome; conditions: 0.5 h
[33] = Prodrug activation in pig liver mitochondria assessed as formation of oseltamivir carboxylate per mg protein at 500 uM after 30 mins by HPLC analysis; design: species or system Sus scrofa; conditions: 0.5 h
Liver = assay: Prodrug activation in 9000g human liver supernatant assessed as formation of oseltamivir carboxylate per mg protein at 500 uM after 30 mins by HPLC analysis; type: tissue-based; conditions: 0.5 h
[34] = Prodrug activation in pig liver assessed as carboxylesterase-mediated oseltamivir carboxylate formation per mg protein at 500 uM after 30 mins by HPLC analysis; type: tissue-based, Sus scrofa; conditions: 0.5 h
Liver microsome = assay: Prodrug activation in human liver microsomes assessed as formation of oseltamivir carboxylate per mg protein at 500 uM after 30 mins by HPLC analysis; conditions: 0.5 h
Influenza A virus [35] = type: functional, organism-based; conditions: A/Jena/5258/2009(H1N1), MDCK
[36] = Prodrug activation in pig liver cytosol assessed as formation of oseltamivir carboxylate per mg protein at 500 uM after 30 mins by HPLC analysis; type: tissue-based, Sus scrofa; conditions: 0.5 h

T1 sequence (B4URF0 whole entry): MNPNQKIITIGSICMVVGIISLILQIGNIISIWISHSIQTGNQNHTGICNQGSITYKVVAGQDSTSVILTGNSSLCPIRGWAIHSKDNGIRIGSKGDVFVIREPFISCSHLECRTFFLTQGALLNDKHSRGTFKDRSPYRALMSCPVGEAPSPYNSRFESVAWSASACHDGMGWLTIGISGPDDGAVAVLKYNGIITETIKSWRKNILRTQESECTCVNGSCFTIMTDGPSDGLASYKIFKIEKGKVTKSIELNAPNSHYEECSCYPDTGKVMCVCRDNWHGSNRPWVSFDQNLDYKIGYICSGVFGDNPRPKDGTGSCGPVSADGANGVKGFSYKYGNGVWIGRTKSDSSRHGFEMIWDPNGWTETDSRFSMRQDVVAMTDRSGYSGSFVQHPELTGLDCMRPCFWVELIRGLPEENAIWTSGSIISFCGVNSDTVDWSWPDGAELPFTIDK
Chain of albumin (P02768 whole entry): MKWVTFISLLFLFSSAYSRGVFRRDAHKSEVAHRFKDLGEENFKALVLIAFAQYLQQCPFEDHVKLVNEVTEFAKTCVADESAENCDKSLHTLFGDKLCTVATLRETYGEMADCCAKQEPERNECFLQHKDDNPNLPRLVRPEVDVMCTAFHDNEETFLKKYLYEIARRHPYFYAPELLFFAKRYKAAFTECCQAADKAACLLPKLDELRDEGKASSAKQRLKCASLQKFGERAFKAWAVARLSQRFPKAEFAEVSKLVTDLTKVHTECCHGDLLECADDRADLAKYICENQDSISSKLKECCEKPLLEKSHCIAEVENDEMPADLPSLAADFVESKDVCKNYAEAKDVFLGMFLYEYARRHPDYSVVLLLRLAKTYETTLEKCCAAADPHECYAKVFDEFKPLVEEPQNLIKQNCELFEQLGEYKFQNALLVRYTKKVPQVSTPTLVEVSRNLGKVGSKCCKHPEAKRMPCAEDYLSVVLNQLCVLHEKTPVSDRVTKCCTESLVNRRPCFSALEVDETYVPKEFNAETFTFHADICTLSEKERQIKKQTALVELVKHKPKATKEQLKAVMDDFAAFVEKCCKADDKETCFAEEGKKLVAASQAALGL

Work on `CCC(CC)O[C@@H]1C=C(C(=O)O)C[C@H](NC(=N)N)[C@H]1NC(C)=O` yielded an EC50 (Influenza A virus [1]) of 3.12 µM, a Tmax [2] of 1.72 h and an MRT [3] of 2.2 h. For the same compound, the bioavailability (in vivo [4]) was 1.9%, the IC (MDCK) was 0.55 mM and the half-life (in vivo [5]) was 73 min. For the same compound, the half-life (in vivo [6]) was 94 min, the bioavailability [7] was 48% and the MRT [8] was 59 min. The Stability [9] was “Stable”, the IC50 (Influenza A virus [10]) was 0.8 nM and the AUC [11] was 4800 ng·h/mL. For the same compound, the fraction unbound at 10 min, up to 50 µM [12] was 0.914, the fraction unbound at 10 min, up to 50 µM (albumin) was 0.996 and the Cmax [13] was 300 ng/mL. The AUC [14] was 450 ng·h/mL, the bioavailability [15] was 23% and the IC50 (Influenza A virus [16]) was 0.22 nM. For the same compound, the F (Rattus norvegicus) was 100%.

In the case of `CCOC(=O)C1=C[C@@H](OC(CC)CC)[C@H](NC(C)=O)[C@@H](N)C1` [OSELTAMIVIR], the bioavailability (in vivo [17]) is reported as 36% and the half-life [18] is reported as 44 min.

`CCC(CC)O[C@@H]1C=C(C(=O)O)C[C@H](NC(C)=N)[C@H]1NC(C)=O` gave an IC50 (Neuraminidase [19]) of 1.3 nM, an EC50 (Influenza A virus [1]) of 1.9 µM and a Tmax [2] of 0.733 h. It also gave an IC50 (Neuraminidase [20]) of 0.44 nM, an IC50 (Neuraminidase [21]) of 0.45 nM and an MRT [3] of 2.1 h. The solubility at 20 min [22] was greater than 50 mM, the bioavailability (in vivo [4]) was 3.9% and the IC50 (Neuraminidase [23]) was 0.3 nM. It also gave an IC (MDCK) of 0.53 mM, a half-life (in vivo [5]) of 68 min and a half-life (in vivo [6]) of 34 min. The IC50 (Neuraminidase [24]) was 2.3 nM, the MRT [8] was 32 min and the Stability [9] was “Stable”. The IC50 (Influenza A virus [10]) was 1.82 nM, the IC50 (Neuraminidase [25]) was 1.87 nM and the fraction unbound at 10 min, up to 50 µM [12] was 0.963. For the same compound, the fraction unbound at 10 min, up to 50 µM (albumin) was 0.978, the Cmax [13] was 600 ng/mL and the solubility at 20 min [26] was greater than 50 mM. The IC50 (Neuraminidase [27]) was 1.79 nM, the AUC [14] was 1880 ng·h/mL and the solubility at 20 min [28] was greater than 50 mM. For the same compound, the IC50 (Influenza A virus [16]) was 0.4 nM and the F (Rattus norvegicus) was 100%.

With `CC(=O)N[C@H]1[C@H]([C@H](O)[C@H](O)CO)OC(C(=O)O)=C[C@@H]1N=C(N)N` [ZANAMIVIR] the IC (MDCK) was “<= 200 ug ml-1”.

`CCOC(=O)C1=C[C@@H](OC(CC)CC)[C@H](NC(C)=O)[C@@H](NC(=N)N)C1` gave a Tmax [2] of 1 h, a Drug metabolism [29] of 0.79 nmol/min/mg and a Drug metabolism [30] of 0.22 nmol/min/mg. For the same compound, the MRT [3] was 2.62 h, the solubility at 20 min [22] was greater than 50 mM and the bioavailability (in vivo [4]) was 1.3%. For the same compound, the Drug metabolism [31] was 0.5 nmol/min/mg, the bioavailability (in vivo [17]) was 2.1% and the half-life (in vivo [5]) was 87 min. The Drug metabolism [32] was 0.22 nmol/min/mg, the Stability [9] was “Stable” and the Drug metabolism [33] was 0.21 nmol/min/mg. For the same compound, the Drug metabolism (Liver) was 0.32 nmol/min/mg, the fraction unbound at 10 min, up to 50 µM (albumin) was 0.699 and the Cmax [13] was 100 ng/mL. For the same compound, the solubility at 20 min [26] was greater than 50 mM, the Drug metabolism [34] was 1.35 nmol/min/mg and the Drug metabolism (Liver microsome) was 1.06 nmol/min/mg. It also gave an AUC [14] of 217 ng·h/mL and a solubility at 20 min [28] greater than 50 mM.

With `CC(=O)N[C@H]1[C@H]([C@H](O)[C@H](O)CO)OC(C(=O)O)=C[C@@H]1NC(=N)N` [ZANAMIVIR] the EC50 (Influenza A virus [1]) was 6.56 µM and the Activity (Influenza A virus [35]) was “Active”.

With `CCC(CC)O[C@@H]1C=C(C(=O)O)C[C@H](N)[C@H]1NC(C)=O` [OSELTAMIVIR CARBOXYLATE] the EC50 (Influenza A virus [1]) was 5.21 µM, the Activity (Influenza A virus [35]) was “Active” and the IC (MDCK) was “<= 200 ug ml-1”. For the same compound, the IC50 (Influenza A virus [10]) was 0.24 nM and the IC50 (Influenza A virus [16]) was 0.12 nM.

With `Br.CCOC(=O)C1=C[C@@H](OC(CC)CC)[C@H](NC(C)=O)[C@@H](NC(C)=N)C1` the Tmax [2] was 0.517 h, the Drug metabolism [29] was 0.56 nmol/min/mg and the Drug metabolism [30] was 0.42 nmol/min/mg. For the same compound, the MRT [3] was 1.62 h, the solubility at 20 min [22] was greater than 50 mM and the bioavailability (in vivo [4]) was 0.8%. The Drug metabolism [36] was 0.66 nmol/min, the half-life (in vivo [5]) was 42 min and the Drug metabolism [32] was 0.3 nmol/min/mg. For the same compound, the Stability [9] was “Stable”, the Drug metabolism [33] was 0.15 nmol/min/mg and the Drug metabolism (Liver) was 0.2 nmol/min/mg. It also gave a fraction unbound at 10 min, up to 50 µM (albumin) of 0.652, a Cmax [13] of 200 ng/mL and a solubility at 20 min [26] greater than 50 mM. For the same compound, the Drug metabolism [34] was 0.83 nmol/min/mg, the Drug metabolism (Liver microsome) was 0.64 nmol/min/mg and the AUC [14] was 283 ng·h/mL. The solubility at 20 min [28] was greater than 50 mM.

With `CCOC(=O)C1=C[C@@H](OC(CC)CC)[C@H](NC(C)=O)[C@@H](NC(N)=NO)C1` the Tmax [2] was 1.52 h, the Drug metabolism [29] was 1.74 nmol/min/mg and the MRT [3] was 2.8 h. For the same compound, the solubility at 20 min [22] was greater than 50 mM, the bioavailability (in vivo [4]) was 1.5% and the Drug metabolism [31] was 0.28 nmol/min/mg. For the same compound, the half-life (in vivo [5]) was 69 min, the Stability [9] was “Stable” and the Drug metabolism (Liver) was 0.76 nmol/min/mg. It also gave a fraction unbound at 10 min, up to 50 µM (albumin) of 0.625, a Cmax [13] of 100 ng/mL and a solubility at 20 min [26] greater than 50 mM. The Drug metabolism (Liver microsome) was 1.76 nmol/min/mg, the AUC [14] was 317 ng·h/mL and the solubility at 20 min [28] was greater than 50 mM.

`CCOC(=O)C1=C[C@@H](OC(CC)CC)[C@H](NC(C)=O)[C@@H](N/C(C)=N/O)C1` gave a Tmax [2] of 1.37 h, a Drug metabolism [29] of 0.29 nmol/min/mg and an MRT [3] of 3.43 h. The solubility at 20 min [22] was 23 mM (≈ 8.5 mg/mL), the bioavailability (in vivo [4]) was 31.4% and the Drug metabolism [36] was 0.4 nmol/min. The half-life (in vivo [5]) was 111 min, the Stability [9] was “Stable” and the Drug metabolism [33] was 0.51 nmol/min/mg. The Drug metabolism (Liver) was 0.56 nmol/min/mg, the fraction unbound at 10 min, up to 50 µM (albumin) was 0.733 and the Cmax [13] was 3100 ng/mL. It also gave a solubility at 20 min [26] of 23 mM (≈ 8.5 mg/mL), a Drug metabolism (Liver microsome) of 2.3 nmol/min/mg and an AUC [14] of 13300 ng·h/mL. The solubility at 20 min [28] was greater than 50 mM.
